Reference: PubChem BioAssay (NCI)
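All cell lines were grown in 96-well plates and treated with compound for 48 hours. The concentration for full growth arrest is given as TGI.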

Assays:
Assay in all cases: NCI anticancer screen, dose series, 48 h
A549 NSCLC = system: A549 NSCLC
SNB-75 CNS = system: SNB-75 CNS
UO-31 renal = system: UO-31 renal
ACHN renal = system: ACHN renal
OVCAR-3 ovarian = system: OVCAR-3 ovarian
NCI-H226 lung = system: NCI-H226 lung
HL-60(TB) leukemia = system: HL-60(TB) leukemia
DMS 273 small cell lung = system: DMS 273 small cell lung
SN12C renal = system: SN12C renal
EKVX NSCLC = system: EKVX NSCLC
NCI-H460 lung = system: NCI-H460 lung
DMS 114 small cell lung = system: DMS 114 small cell lung
HCT-15 colon = system: HCT-15 colon
LXFL 529 NSCLC = system: LXFL 529 NSCLC
CCRF-CEM leukemia = system: CCRF-CEM leukemia
RPMI-8226 leukemia = system: RPMI-8226 leukemia
KM20L2 colon = system: KM20L2 colon
SF-268 CNS = system: SF-268 CNS
UACC-62 melanoma = system: UACC-62 melanoma
KM12 colon = system: KM12 colon
SK-MEL-5 melanoma = system: SK-MEL-5 melanoma
K-562 leukemia = system: K-562 leukemia
NCI-H522 lung = system: NCI-H522 lung
M14 melanoma = system: M14 melanoma
SK-MEL-28 melanoma = system: SK-MEL-28 melanoma
NCI-H23 lung = system: NCI-H23 lung
SF-539 CNS = system: SF-539 CNS
RXF 393 renal = system: RXF 393 renal
OVCAR-5 ovarian = system: OVCAR-5 ovarian
SK-MEL-2 melanoma = system: SK-MEL-2 melanoma
HCT-116 colon = system: HCT-116 colon
SNB-78 CNS = system: SNB-78 CNS
TK-10 renal = system: TK-10 renal
XF 498 CNS = system: XF 498 CNS
IGROV1 ovarian = system: IGROV1 ovarian
786-0 renal = system: 786-0 renal
HT29 colon = system: HT29 colon
MALME-3M melanoma = system: MALME-3M melanoma
OVCAR-8 ovarian = system: OVCAR-8 ovarian
HOP-62 NSCLC = system: HOP-62 NSCLC
SW-620 colon = system: SW-620 colon
LOX IMVI melanoma = system: LOX IMVI melanoma
U251 CNS = system: U251 CNS
SF-295 CNS = system: SF-295 CNS
COLO 205 colon = system: COLO 205 colon
OVCAR-4 ovarian = system: OVCAR-4 ovarian
MOLT-4 leukemia = system: MOLT-4 leukemia
SNB-19 CNS = system: SNB-19 CNS
SR leukemia = system: SR leukemia
HOP-92 NSCLC = system: HOP-92 NSCLC
UACC-257 melanoma = system: UACC-257 melanoma
HOP-18 NSCLC = system: HOP-18 NSCLC
CAKI-1 renal = system: CAKI-1 renal
DLD-1 colon = system: DLD-1 colon
M19-MEL melanoma = system: M19-MEL melanoma
SK-OV-3 ovarian = system: SK-OV-3 ovarian

Q: With `C=CCNC(=S)N1CC(C)C(=O)Nc2ccccc21` (centres undefined) as the molecule, how does the TGI (A549 NSCLC) read?
A: > 100 µM

Q: What about the TGI (SNB-75 CNS) of the same molecule?
A: > 100 µM

Q: What about the TGI (UO-31 renal) of the same molecule?
A: > 100 µM

Q: And the TGI (ACHN renal)?
A: > 100 µM

Q: And the TGI (OVCAR-3 ovarian)?
A: > 100 µM

Q: What about the TGI (NCI-H226 lung) of the same molecule?
A: > 100 µM

Q: And the TGI (HL-60(TB) leukemia)?
A: > 100 µM

Q: What about the TGI (DMS 273 small cell lung) of the same molecule?
A: > 100 µM

Q: What about the TGI (SN12C renal) of the same molecule?
A: > 100 µM

Q: And the TGI (EKVX NSCLC)?
A: > 100 µM

Q: And the TGI (NCI-H460 lung)?
A: > 100 µM

Q: What about the TGI (DMS 114 small cell lung) of the same molecule?
A: > 100 µM

Q: And the TGI (HCT-15 colon)?
A: > 100 µM

Q: What about the TGI (LXFL 529 NSCLC) of the same molecule?
A: > 100 µM

Q: And the TGI (CCRF-CEM leukemia)?
A: > 100 µM

Q: What about the TGI (RPMI-8226 leukemia) of the same molecule?
A: > 100 µM

Q: And the TGI (KM20L2 colon)?
A: > 100 µM

Q: And the TGI (SF-268 CNS)?
A: > 100 µM

Q: And the TGI (UACC-62 melanoma)?
A: > 100 µM

Q: What about the TGI (KM12 colon) of the same molecule?
A: > 100 µM

Q: And the TGI (SK-MEL-5 melanoma)?
A: > 100 µM

Q: What about the TGI (K-562 leukemia) of the same molecule?
A: > 100 µM

Q: And the TGI (NCI-H522 lung)?
A: > 100 µM

Q: What about the TGI (M14 melanoma) of the same molecule?
A: > 100 µM

Q: And the TGI (SK-MEL-28 melanoma)?
A: > 100 µM

Q: What about the TGI (NCI-H23 lung) of the same molecule?
A: > 100 µM

Q: What about the TGI (SF-539 CNS) of the same molecule?
A: > 100 µM

Q: What about the TGI (RXF 393 renal) of the same molecule?
A: > 100 µM

Q: And the TGI (OVCAR-5 ovarian)?
A: > 100 µM

Q: And the TGI (SK-MEL-2 melanoma)?
A: > 100 µM

Q: What about the TGI (HCT-116 colon) of the same molecule?
A: > 100 µM

Q: What about the TGI (SNB-78 CNS) of the same molecule?
A: > 100 µM

Q: And the TGI (TK-10 renal)?
A: > 100 µM

Q: What about the TGI (XF 498 CNS) of the same molecule?
A: > 100 µM

Q: What about the TGI (IGROV1 ovarian) of the same molecule?
A: > 100 µM

Q: And the TGI (786-0 renal)?
A: > 100 µM

Q: What about the TGI (HT29 colon) of the same molecule?
A: > 100 µM

Q: And the TGI (MALME-3M melanoma)?
A: > 100 µM

Q: What about the TGI (OVCAR-8 ovarian) of the same molecule?
A: > 100 µM

Q: And the TGI (HOP-62 NSCLC)?
A: > 100 µM

Q: And the TGI (SW-620 colon)?
A: > 100 µM

Q: What about the TGI (LOX IMVI melanoma) of the same molecule?
A: > 100 µM

Q: What about the TGI (U251 CNS) of the same molecule?
A: > 100 µM

Q: What about the TGI (SF-295 CNS) of the same molecule?
A: > 100 µM

Q: And the TGI (COLO 205 colon)?
A: > 100 µM

Q: What about the TGI (OVCAR-4 ovarian) of the same molecule?
A: > 100 µM

Q: What about the TGI (MOLT-4 leukemia) of the same molecule?
A: > 100 µM

Q: What about the TGI (SNB-19 CNS) of the same molecule?
A: > 100 µM

Q: And the TGI (SR leukemia)?
A: > 100 µM

Q: How did the TGI (A549 NSCLC) turn out when `O=c1cc(-c2ccccc2)[nH]c2cc(Cl)cc(Cl)c12` was run?
A: > 100 µM

Q: And the TGI (SNB-75 CNS)?
A: 30 µM

Q: What about the TGI (UO-31 renal) of the same molecule?
A: > 100 µM

Q: And the TGI (ACHN renal)?
A: > 100 µM

Q: And the TGI (NCI-H226 lung)?
A: > 100 µM

Q: What about the TGI (HL-60(TB) leukemia) of the same molecule?
A: > 100 µM

Q: What about the TGI (DMS 273 small cell lung) of the same molecule?
A: > 100 µM

Q: What about the TGI (HOP-92 NSCLC) of the same molecule?
A: 58.3 µM

Q: And the TGI (UACC-257 melanoma)?
A: > 100 µM

Q: What about the TGI (SN12C renal) of the same molecule?
A: > 100 µM

Q: What about the TGI (HOP-18 NSCLC) of the same molecule?
A: > 100 µM

Q: What about the TGI (NCI-H460 lung) of the same molecule?
A: > 100 µM

Q: And the TGI (DMS 114 small cell lung)?
A: > 100 µM

Q: What about the TGI (HCT-15 colon) of the same molecule?
A: > 100 µM

Q: And the TGI (LXFL 529 NSCLC)?
A: > 100 µM

Q: And the TGI (CAKI-1 renal)?
A: > 100 µM

Q: And the TGI (CCRF-CEM leukemia)?
A: > 100 µM

Q: What about the TGI (RPMI-8226 leukemia) of the same molecule?
A: > 100 µM

Q: And the TGI (SF-268 CNS)?
A: > 100 µM

Q: What about the TGI (UACC-62 melanoma) of the same molecule?
A: > 100 µM

Q: What about the TGI (KM12 colon) of the same molecule?
A: > 100 µM

Q: And the TGI (SK-MEL-5 melanoma)?
A: > 100 µM

Q: And the TGI (DLD-1 colon)?
A: > 100 µM

Q: And the TGI (K-562 leukemia)?
A: > 100 µM

Q: And the TGI (NCI-H522 lung)?
A: > 100 µM

Q: What about the TGI (M14 melanoma) of the same molecule?
A: > 100 µM

Q: What about the TGI (SK-MEL-28 melanoma) of the same molecule?
A: > 100 µM

Q: What about the TGI (NCI-H23 lung) of the same molecule?
A: > 100 µM

Q: And the TGI (SF-539 CNS)?
A: > 100 µM

Q: And the TGI (RXF 393 renal)?
A: 51.2 µM

Q: And the TGI (OVCAR-5 ovarian)?
A: > 100 µM

Q: What about the TGI (SK-MEL-2 melanoma) of the same molecule?
A: > 100 µM

Q: What about the TGI (HCT-116 colon) of the same molecule?
A: > 100 µM

Q: And the TGI (M19-MEL melanoma)?
A: > 100 µM

Q: What about the TGI (TK-10 renal) of the same molecule?
A: > 100 µM

Q: And the TGI (IGROV1 ovarian)?
A: > 100 µM

Q: What about the TGI (786-0 renal) of the same molecule?
A: 60 µM

Q: And the TGI (HT29 colon)?
A: > 100 µM

Q: What about the TGI (MALME-3M melanoma) of the same molecule?
A: > 100 µM

Q: What about the TGI (OVCAR-8 ovarian) of the same molecule?
A: 83.5 µM

Q: What about the TGI (HOP-62 NSCLC) of the same molecule?
A: > 100 µM

Q: What about the TGI (SW-620 colon) of the same molecule?
A: > 100 µM

Q: And the TGI (LOX IMVI melanoma)?
A: > 100 µM

Q: And the TGI (SK-OV-3 ovarian)?
A: 59.4 µM

Q: And the TGI (U251 CNS)?
A: > 100 µM

Q: What about the TGI (SF-295 CNS) of the same molecule?
A: > 100 µM

Q: And the TGI (COLO 205 colon)?
A: > 100 µM

Q: And the TGI (OVCAR-4 ovarian)?
A: 68.6 µM

Q: And the TGI (MOLT-4 leukemia)?
A: > 100 µM

Q: What about the TGI (SR leukemia) of the same molecule?
A: > 100 µM
